System: Acinetobacter baumannii ATCC17961
Assay: 90% Growth Inhibitory Concentration (IC90) determination, antimicrobial susceptibility testing
Assay type: cell-based
Details: Acinetobacter baumannii, ATCC17961, 16 h, Acinetobacter baumannii ATCC17961; Iso-Sensitest broth; growth by optical density at 600 nm over 16h; concentration inhibiting 90% of the growth; read-out: ATCC 17961 IC90
Experimental: Antimicrobial Susceptibility Testing:
90% Growth Inhibitory Concentration (IC90) Determination
The in vitro antimicrobial activity of the compounds was determined according to the following procedure:
The assay used a 10-points Iso-Sensitest broth medium to measure quantitatively the in vitro activity of the compounds against Acinetobacter baumannii ATCC17961.
Stock compounds in DMSO were serially twofold diluted (e.g. range from 50 to 0.097 μM final concentration) in 384 wells microtiter plates and inoculated with 49 μl the bacterial suspension in Iso-Sensitest medium to have a final cell concentration of ~5×10^(5) CFU/ml in a final volume/well of 50 ul/well. Microtiter plates were incubated at 35±2° C.
Bacterial cell growth was determined with the measurement of optical density at λ=600 nm each 20 minutes over a time course of 16h. Growth inhibition was calculated during the logarithmic growth of the bacterial cells with determination of the concentration inhibiting 50% (IC50) and 90% (IC90) of the growth.
Table 1 provides the 90% growth inhibitory concentrations (IC90) in micromoles per liter of the compounds of present invention obtained against the strain Acinetobacter baumannii ATCC17961.

SMILES | IC90 [nM]
Cn1c(-c2cn(-c3ccc(N)cn3)nc2C(F)(F)F)cnc1C(=O)Nc1ccc(C(=O)N[C@H]2C[C@@H](N)C2)c(Cl)c1 [Example Z11, N-[4-[cis-(3-aminocyclobutyl)carbamoyl]-3-chloro-phenyl]-5-[1-(5-amino-2-pyridyl)-3-(trifluoromethyl)pyrazol-4-yl]-1-methyl-imidazole-2-carboxamide] | 950
Cn1c(-c2cn(-c3ccc(N)nc3)nc2C(F)(F)F)cnc1C(=O)Nc1ccc(C(=O)N2CCN(C(=O)C3CCNCC3)CC2)c(Cl)c1 [Example Z10, 5-[1-(6-amino-3-pyridyl)-3-(trifluoromethyl)pyrazol-4-yl]-N-[3-chloro-4-(4-isonipecotoylpiperazine-1-carbonyl)phenyl]-1-methyl-imidazole-2-carboxamide] | 330
Cn1c(-c2cn(-c3ccc(N)cn3)nc2C(F)(F)F)cnc1C(=O)Nc1ccc(C(=O)N2CCN(C(=O)[C@@H]3COCCN3)CC2)c(Cl)c1 [Example C8, 5-[1-(5-amino-2-pyridyl)-3-(trifluoromethyl)pyrazol-4-yl]-N-[3-chloro-4-[4-[(3S)-morpholine-3-carbonyl]piperazine-1-carbonyl]phenyl]-1-methyl-imidazole-2-carboxamide] | 820
Cn1c(-c2cn(-c3ccc(N)cn3)nc2C(F)(F)F)cnc1C(=O)Nc1ccc(C(=O)NCC2CC2NC(=O)[C@@H]2C[C@@H](O)CN2)c(Cl)c1 (stereo partly drawn) [Example Z36, 5-[1-(5-amino-2-pyridyl)-3-(trifluoromethyl)pyrazol-4-yl]-N-[3-chloro-4-[[2-[[(2S,4R)-4-hydroxyprolyl]amino]cyclopropyl]methylcarbamoyl]phenyl]-1-methyl-imidazole-2-carboxamide] | 1180
C[C@H]1NCCN(C(=O)c2ccc(NC(=O)c3ncc(-c4cn(-c5ccc(N)cn5)nc4C(F)(F)F)n3C)cc2Cl)[C@H]1C [Example Z68, 5-[1-(5-amino-2-pyridyl)-3-(trifluoromethyl)pyrazol-4-yl]-N-[3-chloro-4-[(2S,3R)-2,3-dimethylpiperazine-1-carbonyl]phenyl]-1-methyl-imidazole-2-carboxamide] | 650
Cn1c(-c2cn(-c3ccc(N)cn3)nc2C(F)(F)F)cnc1C(=O)Nc1ccc(C(=O)NCCCNC(=O)[C@@H]2C[C@@H](O)CN2)c(Cl)c1 [Example Z26, 5-[1-(5-amino-2-pyridyl)-3-(trifluoromethyl)pyrazol-4-yl]-N-[3-chloro-4-[3-[[(2S,4R)-4-hydroxyprolyl]amino]propylcarbamoyl]phenyl]-1-methyl-imidazole-2-carboxamide] | 690
Cn1c(-c2cn(-c3ccc(N)cn3)nc2C(F)(F)F)cnc1C(=O)Nc1ccc(C(=O)N[C@@H]2COC3(C2)CN(C(=O)[C@@H]2C[C@@H](O)CN2)C3)c(Cl)c1 [Example Z41, 5-[1-(5-amino-2-pyridyl)-3-(trifluoromethyl)pyrazol-4-yl]-N-[3-chloro-4-[[(7S)-2-[(2S,4R)-4-hydroxyprolyl]-5-oxa-2-azaspiro[3.4]octan-7-yl]carbamoyl]phenyl]-1-methyl-imidazole-2-carboxamide] | 300
COc1nn(-c2ccc(N)cn2)cc1-c1cnc(C(=O)Nc2ccc(C(=O)N3CCN(C(=O)C4CCN(C)CC4)CC3)c(Cl)c2)n1C [Example C10, 5-[1-(5-amino-2-pyridyl)-3-methoxy-pyrazol-4-yl]-N-[3-chloro-4-[4-(1-methylpiperidine-4-carbonyl)piperazine-1-carbonyl]phenyl]-1-methyl-imidazole-2-carboxamide] | 7000
Cn1c(-c2cn(-c3ccc(N)cn3)nc2C(F)(F)F)cnc1C(=O)Nc1ccc(C(=O)N2CC3CNC3C2)c(Cl)c1 (stereo not shown) [Example Z59, 5-[1-(5-amino-2-pyridyl)-3-(trifluoromethyl)pyrazol-4-yl]-N-[3-chloro-4-(3,6-diazabicyclo[3.2.0]heptane-3-carbonyl)phenyl]-1-methyl-imidazole-2-carboxamide] | 1310
Cn1c(-c2cn(-c3ccc(N)cn3)nc2C(F)(F)F)cnc1C(=O)Nc1ccc(C(=O)N2CCCNCC2)c(Cl)c1 [Example Z60, 5-[1-(5-amino-2-pyridyl)-3-(trifluoromethyl)pyrazol-4-yl]-N-[3-chloro-4-(1,4-diazepane-1-carbonyl)phenyl]-1-methyl-imidazole-2-carboxamide] | 400
Cn1c(-c2cn(-c3ccc(N)cn3)nc2C(F)(F)F)cnc1C(=O)Nc1ccc(C(=O)N2CCNC3(CC3)C2)c(Cl)c1 [Example Z51, 5-[1-(5-amino-2-pyridyl)-3-(trifluoromethyl)pyrazol-4-yl]-N-[3-chloro-4-(4,7-diazaspiro[2.5]octane-7-carbonyl)phenyl]-1-methyl-imidazole-2-carboxamide] | 990
Cn1c(-c2cn(-c3ncc4cn[nH]c4n3)nc2C(F)(F)F)cnc1C(=O)Nc1ccc(C(=O)N2CCN(C(=O)C3CCNCC3)CC2)c(Cl)c1 [Example A9, N-[3-chloro-4-[4-(piperidine-4-carbonyl)piperazine-1-carbonyl]phenyl]-1-methyl-5-[1-(1h-pyrazolo[3,4-d]pyrimidin-6-yl)-3-(trifluoromethyl)pyrazol-4-yl]imidazole-2-carboxamide] | 510
Cn1c(-c2cn(-c3ccc(N)cn3)nc2C(F)(F)F)cnc1C(=O)Nc1ccc(C(=O)N2CCC(N)CC2)c(Cl)c1 [Example Z20, N-[4-(4-aminopiperidine-1-carbonyl)-3-chloro-phenyl]-5-[1-(5-amino-2-pyridyl)-3-(trifluoromethyl)pyrazol-4-yl]-1-methyl-imidazole-2-carboxamide] | 330
Cn1c(-c2cn(-c3ncc(N)cn3)nc2C(F)(F)F)cnc1C(=O)Nc1ccc(C(=O)N2CCN(C(=O)C3CCNCC3)CC2)c(Cl)c1 [Example A5, 5-[1-(5-aminopyrimidin-2-yl)-3-(trifluoromethyl)pyrazol-4-yl]-N-[3-chloro-4-[4-(piperidine-4-carbonyl)piperazine-1-carbonyl]phenyl]-1-methyl-imidazole-2-carboxamide] | 1000
Cn1c(-c2cn(-c3ccc(N)cn3)nc2C(F)(F)F)cnc1C(=O)Nc1ccc(C(=O)NC2(CN)CC2)c(Cl)c1 [Example Z6, N-[4-[[1-(aminomethyl)cyclopropyl]carbamoyl]-3-chloro-phenyl]-5-[1-(5-amino-2-pyridyl)-3-(trifluoromethyl)pyrazol-4-yl]-1-methyl-imidazole-2-carboxamide] | 930
Cn1c(-c2cn(-c3ccc(N)cn3)nc2C(F)(F)F)cnc1C(=O)Nc1ccc(C(=O)N[C@H]2C[C@H](NC(=O)[C@@H]3C[C@@H](O)CN3)C2)c(Cl)c1 [Example Z38, 5-[1-(5-amino-2-pyridyl)-3-(trifluoromethyl)pyrazol-4-yl]-N-[3-chloro-4-[trans-[3-[[(2S,4R)-4-hydroxyprolyl]amino]cyclobutyl]carbamoyl]phenyl]-1-methyl-imidazole-2-carboxamide] | 660
Cn1c(-c2cn(-c3ccc(N)cn3)nc2C(F)(F)F)cnc1C(=O)Nc1ccc(C(=O)N2C3CNCC2C3)c(Cl)c1 [Example Z55, 5-[1-(5-amino-2-pyridyl)-3-(trifluoromethyl)pyrazol-4-yl]-N-[3-chloro-4-(3,6-diazabicyclo[3.1.1]heptane-6-carbonyl)phenyl]-1-methyl-imidazole-2-carboxamide] | 340
Cn1c(-c2cn(-c3ccc(N)cn3)nc2C(F)(F)F)cnc1C(=O)Nc1ccc(C(=O)N2CCC3(CCNC3)CC2)c(Cl)c1 [Example Z8, 5-[1-(5-amino-2-pyridyl)-3-(trifluoromethyl)pyrazol-4-yl]-N-[3-chloro-4-(2,8-diazaspiro[4.5]decane-8-carbonyl)phenyl]-1-methyl-imidazole-2-carboxamide] | 370
Cn1c(-c2cn(-c3ccc(N)cn3)nc2C(F)(F)F)cnc1C(=O)Nc1ccc(C(=O)N2CCNC(C)(C)C2)c(Cl)c1 [Example Z57, 5-[1-(5-amino-2-pyridyl)-3-(trifluoromethyl)pyrazol-4-yl]-N-[3-chloro-4-(3,3-dimethylpiperazine-1-carbonyl)phenyl]-1-methyl-imidazole-2-carboxamide] | 1290
COCCOc1cnc(-n2cc(-c3cnc(C(=O)Nc4ccc(C(=O)N5CCN(C(=O)C6CCNCC6)CC5)c(Cl)c4)n3C)c(C(F)(F)F)n2)nc1 [Example A6, N-[3-chloro-4-[4-(piperidine-4-carbonyl)piperazine-1-carbonyl]phenyl]-5-[1-[5-(2-methoxyethoxy)pyrimidin-2-yl]-3-(trifluoromethyl)pyrazol-4-yl]-1-methyl-imidazole-2-carboxamide] | 540
Cn1c(-c2cn(-c3ccc(N)cn3)nc2C(F)(F)F)cnc1C(=O)Nc1ccc(C(=O)N2CCC(NC(=O)[C@@H]3C[C@@H](O)CN3)CC2)c(Cl)c1 [Example Z24, 5-[1-(5-amino-2-pyridyl)-3-(trifluoromethyl)pyrazol-4-yl]-N-[3-chloro-4-[4-[[(2S,4R)-4-hydroxyprolyl]amino]piperidine-1-carbonyl]phenyl]-1-methyl-imidazole-2-carboxamide] | 460

Same assay, conditions: Acinetobacter baumannii, ATCC17961, 16 h, read-out: ATCC 17961 IC90

SMILES | IC90 [nM]
Cn1c(-c2cn(-c3ncccn3)nc2C(F)(F)F)cnc1C(=O)Nc1ccc(C(=O)N2CCN(C(=O)[C@H]3[C@@H]4CNC[C@@H]43)CC2)c(Cl)c1 [Example F1, N-[4-[4-[(1R,5S)-3-Azabicyclo[3.1.0]hexane-6-carbonyl]piperazine-1-carbonyl]-3-chloro-phenyl]-1-methyl-5-[1-pyrimidin-2-yl-3-(trifluoromethyl)pyrazol-4-yl]imidazole-2-carboxamide] | 450

From patent US12679824B2 (Hoffmann-La Roche Inc., priority 2020, dated 2026)
